Experimental data reported in publication PMC9151520 (Archives of Toxicology, 2022).
Read-outs that look alike come from different tables or passages of the source.

Key:
[1] = system: p53 signaling (p53RE-bla HCT-116 cells); assay: cells; format: cell-based
[2] = system: p53 signaling (p53RE-bla HCT-116 cells)
[3] = system: p53 signaling (p53RE-bla HCT-116 cells); remark: listed apart in the source
[4] = read-out: EC50, p53 activation, primary screening
[5] = Homo sapiens, HCT-116, read-out: p53 activation EC50, cherry pick confirmation
[6] = Homo sapiens, HCT-116, read-out: p53 activation EC50, primary screening
[7] = Homo sapiens, HCT-116, read-out: p53 activation efficacy, cherry pick confirmation
[8] = Homo sapiens, HCT-116, read-out: p53 activation efficacy, primary screening
[9] = Homo sapiens, HCT-116, read-out: EC50, p53 activation, primary screening
[10] = Homo sapiens, HCT-116, read-out: Efficacy, p53 activation, primary screening
[11] = read-out: p53 activation EC50, cherry pick confirmation
[12] = read-out: p53 activation EC50, primary screening

SMILES	Efficacy, p53 activation, cherry pick confirmation [1]	EC50, p53 activation, cherry pick confirmation [2]	EC50, p53 activation, primary screening [2]	Efficacy, p53 activation, cherry pick confirmation [2]	EC50, viability, cherry pick confirmation (p53RE-bla HCT-116 cells)	EC50, viability, primary screening (p53RE-bla HCT-116 cells)	Efficacy, viability, cherry pick confirmation (p53RE-bla HCT-116 cells)	Efficacy, viability, primary screening (p53RE-bla HCT-116 cells)	EC50, p53 activation, cherry pick confirmation [3]	Efficacy, p53 activation, cherry pick confirmation [3]	p53 activation EC50, cherry pick confirmation [2]	p53 activation EC50, primary screening [2]	p53 activation efficacy, cherry pick confirmation [2]	p53 activation efficacy, primary screening [2]	Viability EC50, cherry pick confirmation (p53RE-bla HCT-116 cells)	Viability EC50, primary screening (p53RE-bla HCT-116 cells)	Viability efficacy, cherry pick confirmation (p53RE-bla HCT-116 cells)	Viability efficacy, primary screening (p53RE-bla HCT-116 cells)	p53 activation EC50, cherry pick confirmation [3]	p53 activation EC50, primary screening [3]	further results
COC(=O)c1nc(Cl)c(Cl)nc1N	118.088	inactive	inactive	inactive	inactive	inactive	inactive	inactive	inactive	inactive											Efficacy, p53 activation, primary screening [1]: 51.0133; EC50 ([1]; read-out: EC50, p53 activation, cherry pick confirmation): 24 µM; EC50 [1, 4]: 21.5 µM; EC50 [3, 4]: 22.4 µM
Cc1ccccc1C(=O)Nc1ccc(C(=O)N2CCCC(N(C)C)c3ccccc32)cc1 (stereo not shown) [Mozavaptan]											inactive	inactive	inactive	inactive	inactive	inactive	inactive	inactive	inactive	inactive	EC50 [1, 5]: 1.36 µM; EC50 [1, 6]: 7.97 µM; Emax [1, 7]: 38.6%; Emax [1, 8]: 66.2%; p53 activation efficacy, cherry pick confirmation [3]: inactive; p53 activation efficacy, primary screening [3]: inactive
Oc1ccc(-c2ccc(O)cc2)cc1 [4,4'-Biphenyldiol]	inactive	inactive	inactive	inactive	inactive	inactive	inactive	inactive	inactive	inactive											EC50, p53 activation, cherry pick confirmation [1]: inactive; EC50 [1, 9]: 35.4 µM; Emax [1, 10]: 48.2%; Efficacy, p53 activation, primary screening [2]: inactive; EC50, p53 activation, primary screening [3]: inactive; Efficacy, p53 activation, primary screening [3]: inactive
CC(C)(C)C(=O)OCOP(=O)(COCCn1cnc2c(N)ncnc21)OCOC(=O)C(C)(C)C [Adefovir dipivoxil]											inactive	inactive	inactive	inactive	inactive	inactive	inactive	inactive	inactive	inactive	EC50 [1, 5]: 1.47 µM; EC50 [1, 6]: 5.18 µM; Emax [1, 7]: 60.8%; Emax [1, 8]: 106%; p53 activation efficacy, cherry pick confirmation [3]: inactive; p53 activation efficacy, primary screening [3]: inactive
C[C@H]1O[C@@H](n2cc(F)c(=O)[nH]c2=O)[C@H](O)[C@@H]1O [Doxifluridine]	inactive	inactive	inactive	inactive	inactive	inactive	inactive	inactive	inactive	inactive											EC50, p53 activation, cherry pick confirmation [1]: inactive; EC50 [1, 9]: 10.6 µM; Emax [1, 10]: 83.9%; Efficacy, p53 activation, primary screening [2]: inactive; EC50, p53 activation, primary screening [3]: inactive; Efficacy, p53 activation, primary screening [3]: inactive
CC(=O)O[C@@H]1C(=O)O[C@H]2[C@@H]1OC(=O)[C@@H]2OC(C)=O [Aceglatone]	inactive	inactive	inactive	inactive	inactive	inactive	inactive	inactive	inactive	inactive											EC50, p53 activation, cherry pick confirmation [1]: inactive; EC50 [1, 9]: 21.5 µM; Emax [1, 10]: 37.3%; Efficacy, p53 activation, primary screening [2]: inactive; EC50, p53 activation, primary screening [3]: inactive; Efficacy, p53 activation, primary screening [3]: inactive
O=C(O)Cc1ccccc1Nc1c(Cl)cccc1Cl [Diclofenac sodium]	inactive	inactive	inactive	inactive	inactive	inactive	inactive	inactive	inactive	inactive											EC50, p53 activation, cherry pick confirmation [1]: inactive; EC50 [1, 9]: 51.3 µM; Emax [1, 10]: 38.2%; Efficacy, p53 activation, primary screening [2]: inactive; EC50, p53 activation, primary screening [3]: inactive; Efficacy, p53 activation, primary screening [3]: inactive
CO/C=C(/C(=O)OC)c1ccccc1COc1cccc(C(F)(F)F)n1 [Picoxystrobin]											inactive	inactive	inactive	inactive	inactive	inactive	inactive	inactive	inactive	inactive	p53 activation efficacy, cherry pick confirmation [1]: 51.0407; p53 activation efficacy, primary screening [1]: 42.314; EC50 [1, 11]: 12.5 µM; EC50 [1, 12]: 4.78 µM; p53 activation efficacy, cherry pick confirmation [3]: inactive; p53 activation efficacy, primary screening [3]: inactive
Oc1ccc(OCc2ccccc2)cc1 [4-(Benzyloxyl)phenol]											inactive	inactive	inactive	inactive	inactive	inactive	inactive	inactive	inactive	inactive	EC50 [1, 5]: 14 µM; EC50 [1, 6]: 18.6 µM; Emax [1, 7]: 39%; Emax [1, 8]: 33.5%; p53 activation efficacy, cherry pick confirmation [3]: inactive; p53 activation efficacy, primary screening [3]: inactive
CO.COc1cc(Nc2c(C#N)cnc3cc(OCCCN4CCN(C)CC4)c(OC)cc23)c(Cl)cc1Cl [Bosutinib methanoate]											inactive	inactive	inactive	inactive	inactive	inactive	inactive	inactive	inactive	inactive	p53 activation efficacy, cherry pick confirmation [1]: 36.685; p53 activation efficacy, primary screening [1]: 29.3917; EC50 [1, 11]: 17.3 µM; EC50 [1, 12]: 15.4 µM; p53 activation efficacy, cherry pick confirmation [3]: inactive; p53 activation efficacy, primary screening [3]: inactive
CNC(=O)O/N=C/C(C)(C)SC [Aldicarb]																					p53 activation EC50 [1]: inactive; p53 activation efficacy [1]: inactive; p53 activation EC50 [2]: inactive; Viability EC50 (p53RE-bla HCT-116 cells): inactive; Viability efficacy (p53RE-bla HCT-116 cells): inactive; p53 activation EC50 [3]: inactive
CC(C)c1cccc(C(C)C)c1N1C(=O)c2ccc(O)cc2C1=O											inactive	inactive	inactive	inactive	inactive	inactive	inactive	inactive	inactive	inactive	p53 activation efficacy, cherry pick confirmation [1]: 44.7367; p53 activation efficacy, primary screening [1]: 87.6647; EC50 [1, 11]: 3.1 µM; EC50 [1, 12]: 3.93 µM; p53 activation efficacy, cherry pick confirmation [3]: inactive; p53 activation efficacy, primary screening [3]: inactive
CCOC(=O)NC(=S)Nc1ccccc1NC(=S)NC(=O)OCC [Thiophanate]	inactive	inactive	inactive	inactive	inactive	inactive	inactive	inactive	inactive	inactive											EC50, p53 activation, cherry pick confirmation [1]: inactive; EC50 [1, 9]: 41 µM; Emax [1, 10]: 70.2%; Efficacy, p53 activation, primary screening [2]: inactive; EC50, p53 activation, primary screening [3]: inactive; Efficacy, p53 activation, primary screening [3]: inactive
